The numbers were not newly measured in patent publication US7230101B1, “Synthesis of methotrexate-containing heterodimeric molecules” (GPC Biotech, Inc., priority 2002, dated 2007), which cites them from elsewhere.

Series [1] deals with Glutathione-S-Transferase. Particulars: read-out: Affinity, dissociation constant, known in the art.
In another series the target is 6 X His. To be noted: dissociation constant, known in the art, read-out: Affinity.
The next series has as its target Tet-R (Escherichia coli, UniProt P04483). To be noted: dissociation constant, known in the art, read-out: Affinity.

Each structure is given as a SMILES string.

Chain of Tet-R (P04483 whole entry): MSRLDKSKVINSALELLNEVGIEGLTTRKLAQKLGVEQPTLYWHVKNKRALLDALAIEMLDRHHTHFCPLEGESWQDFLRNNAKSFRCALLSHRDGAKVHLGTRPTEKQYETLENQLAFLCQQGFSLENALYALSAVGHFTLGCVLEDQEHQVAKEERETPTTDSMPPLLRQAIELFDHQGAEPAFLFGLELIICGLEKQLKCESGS

Consider `N[C@@H](CCC(=O)N[C@@H](CS)C(=O)NCC(=O)O)C(=O)O` [Glutathione], for which the Kd in series [1] was 24000 nM. As to `[Ni]` [Ni], on 6 X His, the Kd is 800 nM.

Turning to `CN(C)[C@@H]1C(=O)C(C(N)=O)=C(O)[C@@]2(O)C(=O)C3=C(O)c4c(O)cccc4[C@@](C)(O)[C@H]3C[C@@H]12` [Tetracyclin], the Kd at Tet-R was 24 nM.
